{"source": "patent US7807867B2", "about": "“Gene encoding protein involved in cytokinin synthesis” (Suntory Holdings Limited, priority 2001, dated 2010)", "molecules": {"B1": {"name": "AtIPT4 (Arabidopsis thaliana) (protein)", "chain": "MKCNDKMVVIMGATGSGKSSLSVDLALHFKAEIINSDKMQFYDGLKITTNQSTIEDRRGVPHHLLGELNPEAGEVTAAEFRVMAAEAISEITQRKKLPILAGGSNSYIHALLAKSYDPENYPFSDHKGSICSELKYDCCFIWIDVDQSVLFEYLSLRLDLMMKSGMFEEIAEFHRSKKAPKEPLGIWKAIGVQEFDDYLKMYKWDNDMDKWDPMRKEAYEKAVRAIKENTFQLTKDQITKINKLRNAGWDIKKVDATASFREAIRAAKEGEGVAEMQRKIWNKEVLEPCVKIVRSHLDQPINYYYYYFYLLKRFLSLN"}}, "key": {"[1]": {"target": "T1, AtIPT4 (Arabidopsis thaliana, UniProt Q9SB60)", "T1 construct": "made in house", "T1 sequence (Q9SB60 1-318)": "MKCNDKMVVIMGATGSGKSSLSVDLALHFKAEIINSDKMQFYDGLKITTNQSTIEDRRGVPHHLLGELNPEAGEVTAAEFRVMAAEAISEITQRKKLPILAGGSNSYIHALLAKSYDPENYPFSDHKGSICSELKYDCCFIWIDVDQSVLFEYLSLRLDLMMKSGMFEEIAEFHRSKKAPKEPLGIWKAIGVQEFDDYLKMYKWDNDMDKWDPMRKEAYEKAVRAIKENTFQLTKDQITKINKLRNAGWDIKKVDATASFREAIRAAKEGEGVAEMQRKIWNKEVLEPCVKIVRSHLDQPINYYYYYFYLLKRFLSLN", "assay": "Enzyme activity of purified AtIPT4 protein (dimethylallyl transfer, Km)", "assay_type": "biochemical", "settings": "for transfer of the dimethylallyl group of DMAPP to the substrate: 3H-labeled substrate at 0.25 μM, Ni-NTA bound AtIPT4 (Sample D), 30 minutes at 23° C.", "procedure": "This was designated as Sample A. 400 μl of Ni-NTA agarose suspension (containing 110 μl of Ni-NTA agarose as precipitate, 30 mM NaH2PO4 (pH 8), […], 0.9 M NaCl, 7.5 mM β-mercaptoethanol, 0.5 mM PMSF and 30 μg/ml of leupeptin) were added to 800 μl of Sample A. This suspension was designated as Sample B. Sample B was then centrifuged to separate into supernatant (Sample C) and precipitate. Washing liquid (consisting of 20 mM NaH2PO4 (pH 8), […], 0.3 M NaCl, 5 mM β-mercaptoethanol, 0.5 mM PMSF and 10 μg/ml of leupeptin) was added to the precipitate, and the Ni-NTA agarose was washed four times using a procedure in which the precipitate was recovered by centrifugation. […] After adding 700 μl of ethyl acetate to this reaction liquid followed by stirring and centrifuging, 550 μl of the ethyl acetate layer were recovered followed by the addition of 500 μl of distilled water. After stirring and centrifugal separation, 350 μl of the ethyl acetate layer were recovered followed again by the addition of 500 μl of distilled water. After again stirring and separating by centrifugation, 0.5 ml of ACSII (Pharmacia) were added to 50 μl of the ethyl acetate layer followed by measurement of radioactivity with a liquid scintillation counter."}, "[2]": {"target": "T2, AtIPT1 (Arabidopsis thaliana, UniProt Q94ID3)", "T2 construct": "made in house", "T2 sequence (Q94ID3 72-357)": "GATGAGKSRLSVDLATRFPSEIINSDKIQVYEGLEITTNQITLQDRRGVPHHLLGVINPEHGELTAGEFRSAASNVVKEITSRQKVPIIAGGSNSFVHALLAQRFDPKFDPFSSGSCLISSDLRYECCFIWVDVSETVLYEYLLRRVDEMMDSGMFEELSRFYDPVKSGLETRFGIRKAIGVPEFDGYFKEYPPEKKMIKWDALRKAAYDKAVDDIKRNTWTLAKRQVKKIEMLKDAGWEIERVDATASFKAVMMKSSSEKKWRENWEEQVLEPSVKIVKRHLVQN", "assay": "Enzyme activity of AtIPT1 protein (dimethylallyl transfer)", "assay_type": "biochemical"}, "[3]": {"target": "tzs (Agrobacterium fabrum, UniProt P58758)", "sequence (P58758 whole entry)": "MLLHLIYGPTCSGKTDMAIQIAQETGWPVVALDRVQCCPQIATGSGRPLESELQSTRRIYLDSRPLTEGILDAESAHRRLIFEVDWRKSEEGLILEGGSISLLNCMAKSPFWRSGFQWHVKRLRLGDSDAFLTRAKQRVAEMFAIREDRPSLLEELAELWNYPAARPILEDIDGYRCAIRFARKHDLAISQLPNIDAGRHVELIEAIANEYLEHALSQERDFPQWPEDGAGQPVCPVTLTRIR", "settings": "read-out: Km of tzs for AMP; cited from earlier work"}, "[4]": {"substrate": "CC(C)=CCOP(=O)(O)OP(=O)(O)O", "assay": "purified protein, by the assay type", "settings": "other: in the presence of 200 μM ATP; purified recombinant AtIPT4 protein; 23.0 °C"}}}
{"molecule": "Nc1ncnc2c1ncn2[C@@H]1O[C@H](COP(=O)(O)OP(=O)(O)O)[C@@H](O)[C@H]1O", "note": "[ADP]", "values": [{"measurement": "transfer of the dimethylallyl group of DMAPP to the substrate", "setting": "[1]", "value": "efficiently transferred"}, {"measurement": "transfer of a dimethylallyl group to the substrate", "setting": "[2]", "value": "activity that transfers a dimethylallyl group"}]}
{"molecule": "Nc1ncnc2c1ncn2[C@@H]1O[C@H](COP(=O)(O)O)[C@@H](O)[C@H]1O", "note": "[AMP, adenosine monophosphate]", "values": [{"measurement": "Km", "setting": "[3]", "value": 11.1, "unit": "µM"}]}
{"molecule": "Nc1ncnc2c1ncn2[C@@H]1O[C@H](COP(=O)(O)OP(=O)(O)OP(=O)(O)O)[C@@H](O)[C@H]1O", "note": "[ATP]", "values": [{"measurement": "transfer of the dimethylallyl group of DMAPP to the substrate", "setting": "[1]", "value": "efficiently transferred"}, {"measurement": "Km", "setting": "[1]; in the presence of 0.4 mM DMAPP, purified recombinant AtIPT4 protein (2 ng/ml), read-out: Km for ATP", "value": "~11.1", "unit": "µM"}, {"measurement": "transfer of a dimethylallyl group to the substrate", "setting": "[2]", "value": "activity that transfers a dimethylallyl group"}]}
{"molecule": "B1", "values": [{"measurement": "Km", "setting": "[4]", "value": 6.5, "unit": "µM"}]}
